Test results published in PMC11206203, “Peptide macrocyclisation via intramolecular interception of visible-light-mediated desulfurisation” (Chemical Science, 2024).

Assay: C(sp3)-C(sp3) bond formation by visible-light-mediated Cys desulfurisation: alanyl radical adds to terminal alkene of allylglycine (or O-allyl Ser, pentenylGly, acrylamide); TCEP 50 eq (25 mM), (Ir[dF(CF3)ppy]2(dtbpy))PF6 1 mol%, 450 nm blue LED; unprotected peptides
Settings: 6 M Gdn.HCl, 0.1 M Na2HPO4 pH 7.5-8.0 / MeCN 9:1, 0.5 mM, 25.0 °C

## CC[C@H](C)[C@@H]1NC(=O)[C@H](CCCCN)NC(=O)[C@@H](NC(C)=O)CCCC[C@@H](C(N)=O)NC(=O)[C@H](Cc2ccc(O)cc2)NC(=O)[C@H](CO)NC1=O [Ac-Cys-Lys-Ile-Ser-Tyr-(allylGly)-NH2]
From C=CC[C@H](NC(=O)[C@H](Cc1ccc(O)cc1)NC(=O)[C@H](CO)NC(=O)[C@@H](NC(=O)[C@H](CCCCN)NC(=O)[C@H](CS)NC(C)=O)[C@@H](C)CC)C(N)=O, 20-membered ring
  ring closure, isolated yield: 64%

## NCCCC[C@@H]1NC(=O)[C@H](CC(=O)O)NC(=O)[C@@H](N)CCCC[C@@H](C(N)=O)NC(=O)[C@H](CCC(=O)O)NC(=O)[C@H](Cc2c[nH]cn2)NC(=O)[C@H](CC(N)=O)NC(=O)[C@H](Cc2ccccc2)NC1=O [H-(allylGly)-Asp-Lys-Phe-Asn-His-Glu-Cys-NH2]
From C=CC[C@H](N)C(=O)N[C@@H](CC(=O)O)C(=O)N[C@@H](CCCCN)C(=O)N[C@@H](Cc1ccccc1)C(=O)N[C@@H](CC(N)=O)C(=O)N[C@@H](Cc1c[nH]cn1)C(=O)N[C@@H](CCC(=O)O)C(=O)N[C@@H](CS)C(N)=O, 26-membered ring
  ring closure, isolated yield: 70%

## CC[C@H](C)[C@@H]1NC(=O)[C@H](CCCCN)NC(=O)[C@H](Cc2ccc(O)cc2)NC(=O)[C@H](CO)NC(=O)[C@H](CC(=O)O)NC(=O)[C@@H](NC(C)=O)CCCC[C@@H](C(N)=O)NC1=O [Ac-(allylGly)-Asp-Ser-Tyr-Lys-Ile-Cys-NH2]
From C=CC[C@H](NC(C)=O)C(=O)N[C@@H](CC(=O)O)C(=O)N[C@@H](CO)C(=O)N[C@@H](Cc1ccc(O)cc1)C(=O)N[C@@H](CCCCN)C(=O)N[C@H](C(=O)N[C@@H](CS)C(N)=O)[C@@H](C)CC, 23-membered ring
  ring closure, isolated yield: 58%

## C[C@@H]1NC(=O)[C@H](Cc2ccccc2)NC(=O)[C@H](C)NC(=O)[C@@H](N)COCCCC[C@@H](C(N)=O)NC1=O [H-Ser(OAllyl)-Ala-Phe-Ala-Cys-NH2]
From C=CCOC[C@H](N)C(=O)N[C@@H](C)C(=O)N[C@@H](Cc1ccccc1)C(=O)N[C@@H](C)C(=O)N[C@@H](CS)C(N)=O, 19-membered ring, 1.0 h
  ring closure, isolated yield: 78%

## CCCC[C@@H]1NC(=O)[C@H](CO)NC(=O)[C@H](CC(=O)O)NC(=O)CNC(=O)[C@H](C(C)C)NC(=O)[C@H](CCC(N)=O)NC(=O)[C@@H](NC(C)=O)CCCC[C@@H](C(N)=O)NC1=O [Ac-(allylGly)-Gln-Val-Gly-Asp-Ser-Nle-Cys-NH2]
From C=CC[C@H](NC(C)=O)C(=O)N[C@@H](CCC(N)=O)C(=O)N[C@H](C(=O)NCC(=O)N[C@@H](CC(=O)O)C(=O)N[C@@H](CO)C(=O)N[C@@H](CCCC)C(=O)N[C@@H](CS)C(N)=O)C(C)C, 26-membered ring
  ring closure, isolated yield: 76%

## CSCC[C@@H]1NC(=O)[C@@H](N)CCCC[C@@H](C(N)=O)NC(=O)[C@H](CCCCN)NC(=O)[C@H](CCC(=O)O)NC(=O)[C@H](CC(C)C)NC(=O)[C@H](C)NC1=O [H-(allylGly)-Met-Ala-Leu-Glu-Lys-Cys-NH2]
From C=CC[C@H](N)C(=O)N[C@@H](CCSC)C(=O)N[C@@H](C)C(=O)N[C@@H](CC(C)C)C(=O)N[C@@H](CCC(=O)O)C(=O)N[C@@H](CCCCN)C(=O)N[C@@H](CS)C(N)=O, 23-membered ring
  ring closure, isolated yield: 44%

## CSCC[C@@H]1NC(=O)[C@@H](N)CCCC[C@@H](C(N)=O)NC(=O)[C@H](CCCNC(=N)N)NC(=O)[C@H](CC(C)C)NC(=O)[C@H](Cc2c[nH]c3ccccc23)NC(=O)[C@@H]2CCCN2C1=O [H-(allylGly)-Met-Pro-Trp-Leu-Arg-Cys-NH2]
From C=CC[C@H](N)C(=O)N[C@@H](CCSC)C(=O)N1CCC[C@H]1C(=O)N[C@@H](Cc1c[nH]c2ccccc12)C(=O)N[C@@H](CC(C)C)C(=O)N[C@@H](CCCNC(=N)N)C(=O)N[C@@H](CS)C(N)=O, 23-membered ring
  ring closure, isolated yield: 65%

## C[C@@H]1NC(=O)[C@H](Cc2ccccc2)NC(=O)[C@H](C)NC(=O)[C@@H](N)CCCCCC[C@@H](C(N)=O)NC1=O [H-(4-pentenylGly)-Ala-Phe-Ala-Cys-NH2]
From C=CCCC[C@H](N)C(=O)N[C@@H](C)C(=O)N[C@@H](Cc1ccccc1)C(=O)N[C@@H](C)C(=O)N[C@@H](CS)C(N)=O, 19-membered ring, 1.0 h
  ring closure, isolated yield: 32%

## CC(=O)N[C@H]1CCCC[C@@H](C(N)=O)NC(=O)[C@H](CCCCN)NC(=O)[C@@H]2CCCN2C(=O)[C@H]([C@@H](C)O)NC1=O [Ac-(allylGly)-Thr-Pro-Lys-Cys-NH2]
From C=CC[C@H](NC(C)=O)C(=O)N[C@H](C(=O)N1CCC[C@H]1C(=O)N[C@@H](CCCCN)C(=O)N[C@@H](CS)C(N)=O)[C@@H](C)O, 17-membered ring
  ring closure, isolated yield: 48%

## CSCC[C@@H]1NC(=O)[C@@H]2CCCN2C(=O)[C@H](CCCNC(=N)N)NC(=O)[C@@H](NC(C)=O)CCCC[C@@H](C(N)=O)NC(=O)[C@H](Cc2c[nH]cn2)NC1=O [Ac-(allylGly)-Arg-Pro-Met-His-Cys-NH2]
From C=CC[C@H](NC(C)=O)C(=O)N[C@@H](CCCNC(=N)N)C(=O)N1CCC[C@H]1C(=O)N[C@@H](CCSC)C(=O)N[C@@H](Cc1c[nH]cn1)C(=O)N[C@@H](CS)C(N)=O, 20-membered ring
  ring closure, isolated yield: 48%

## CC[C@H](C)[C@@H]1NC(=O)[C@H](Cc2ccc(O)cc2)NC(=O)[C@@H](N)CCCC[C@@H](C(=O)N2CCC[C@H]2C(=O)N[C@@H](CC(C)C)C(=O)NCC(N)=O)NC(=O)[C@H](CC(N)=O)NC(=O)[C@H](CCC(N)=O)NC1=O [H-Cys-Tyr-Ile-Gln-Asn-(allylGly)-Pro-Leu-Gly-NH2]
From C=CC[C@H](NC(=O)[C@H](CC(N)=O)NC(=O)[C@H](CCC(N)=O)NC(=O)[C@@H](NC(=O)[C@H](Cc1ccc(O)cc1)NC(=O)[C@@H](N)CS)[C@@H](C)CC)C(=O)N1CCC[C@H]1C(=O)N[C@@H](CC(C)C)C(=O)NCC(N)=O, 20-membered ring
  ring closure, isolated yield: 52%

## CC(C)C[C@@H]1NC(=O)[C@H](CC(=O)O)NC(=O)[C@H](CCC(=O)O)NC(=O)[C@@H](N)CCCC[C@@H](C(N)=O)NC(=O)[C@H](CCC(N)=O)NC(=O)[C@H](Cc2ccc(O)cc2)NC(=O)[C@H](Cc2ccccc2)NC1=O [H-(allylGly)-Glu-Asp-Leu-Phe-Tyr-Gln-Cys-NH2]
From C=CC[C@H](N)C(=O)N[C@@H](CCC(=O)O)C(=O)N[C@@H](CC(=O)O)C(=O)N[C@@H](CC(C)C)C(=O)N[C@@H](Cc1ccccc1)C(=O)N[C@@H](Cc1ccc(O)cc1)C(=O)N[C@@H](CCC(N)=O)C(=O)N[C@@H](CS)C(N)=O, 26-membered ring
  ring closure, isolated yield: 65%

## CCCC[C@H](NC(=O)[C@@H]1CCCC[C@H](NC(=O)[C@H](C)NC(=O)[C@H](CC(C)C)NC(=O)[C@H](Cc2c[nH]cn2)NC(C)=O)C(=O)N[C@@H](C(C)C)C(=O)NCC(=O)N[C@@H](CC(=O)O)C(=O)N1)C(=O)N[C@@H](CC(=O)O)C(=O)N[C@@H](CCCNC(=N)N)C(N)=O [Ac-His-Leu-Ala-(allylGly)-Val-Gly-Asp-Cys-Nle-Asp-Arg-NH2]
From C=CC[C@H](NC(=O)[C@H](C)NC(=O)[C@H](CC(C)C)NC(=O)[C@H](Cc1c[nH]cn1)NC(C)=O)C(=O)N[C@H](C(=O)NCC(=O)N[C@@H](CC(=O)O)C(=O)N[C@@H](CS)C(=O)N[C@@H](CCCC)C(=O)N[C@@H](CC(=O)O)C(=O)N[C@@H](CCCNC(=N)N)C(N)=O)C(C)C, 17-membered ring
  ring closure, isolated yield: 23%

## CCCC[C@@H]1NC(=O)[C@H](CO)NC(=O)[C@H](CC(=O)O)NC(=O)CNC(=O)[C@H](C(C)C)NC(=O)[C@H](CCC(N)=O)NC(=O)[C@@H](NC(=O)[C@H](CC(C)C)NC(=O)[C@H](Cc2c[nH]cn2)NC(=O)[C@H](CCCNC(=N)N)NC(C)=O)CCCC[C@@H](C(=O)N[C@@H](CCCNC(=N)N)C(=O)N[C@@H](CO)C(=O)N[C@H](C(N)=O)[C@@H](C)CC)NC1=O
From C=CC[C@H](NC(=O)[C@H](CC(C)C)NC(=O)[C@H](Cc1c[nH]cn1)NC(=O)[C@H](CCCNC(=N)N)NC(C)=O)C(=O)N[C@@H](CCC(N)=O)C(=O)N[C@H](C(=O)NCC(=O)N[C@@H](CC(=O)O)C(=O)N[C@@H](CO)C(=O)N[C@@H](CCCC)C(=O)N[C@@H](CS)C(=O)N[C@@H](CCCNC(=N)N)C(=O)N[C@@H](CO)C(=O)N[C@H](C(N)=O)[C@@H](C)CC)C(C)C, 26-membered ring
  ring closure, isolated yield: 23%

## CC[C@H](C)[C@@H]1NC(=O)[C@H](CCCCN)NC(=O)[C@@H](NC(C)=O)CCCC[C@@H](C(N)=O)NC(=O)[C@H](Cc2ccc(O)cc2)NC(=O)[C@H](CO)NC1=O [Ac-(allylGly)-Lys-Ile-Ser-Tyr-Cys-NH2]
From C=CC[C@H](NC(C)=O)C(=O)N[C@@H](CCCCN)C(=O)N[C@H](C(=O)N[C@@H](CO)C(=O)N[C@@H](Cc1ccc(O)cc1)C(=O)N[C@@H](CS)C(N)=O)[C@@H](C)CC, 20-membered ring
  ring closure, isolated yield: 64%
